This is an account of results in PubChem BioAssay (NCI).

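Each compound was tested at five concentrations against cells in 96-well plates for 48 hours. Abbreviation: GI50, concentration required for 50% inhibition of growth. Definition used: TGI = concentration required for complete inhibition of growth.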 Where only a bound is given, the exact number is not on record here.

Some test systems named below: 786-0 renal; ACHN renal; CAKI-1 renal; EKVX NSCLC; HCC-2998 colon; HOP-92 NSCLC; IGROV1 ovarian; MCF7 breast; MDA-MB-435; MOLT-4 leukemia; NCI-H460 lung; NCI/ADR-RES ovarian; RXF 393 renal; SF-539 CNS; SK-OV-3 ovarian; SNB-19 CNS; SW-620 colon; T-47D breast; UACC-257 melanoma.
Holding throughout (assay): NCI anticancer screen, dose series, 48 h

For the molecule `Cc1ccc(S(=O)ON2CCC(C(=O)O)(c3ccccc3)CC2)cc1` (stereo not given), the TGI in the assay with 786-0 renal was more than 32.2 µM; with ACHN renal it was more than 100 µM; in the assay on CAKI-1 renal, more than 100 µM; in the assay with EKVX NSCLC, more than 100 µM; in the assay with HCC-2998 colon, more than 100 µM; with HOP-92 NSCLC it was more than 100 µM. Moreover, the TGI in the assay with IGROV1 ovarian, in the assay on MCF7 breast, with MDA-MB-435, in the assay on MOLT-4 leukemia, in the assay on NCI-H460 lung and in the assay on NCI/ADR-RES ovarian was more than 100 µM each time. Further, the TGI in the assay on RXF 393 renal, in the assay with SF-539 CNS, in the assay on SK-OV-3 ovarian, in the assay with SNB-19 CNS, in the assay with SW-620 colon and in the assay with T-47D breast was more than 100 µM in each case. In the assay on UACC-257 melanoma, this molecule came in with a TGI of more than 100 µM. Besides, the GI50 in the assay with SF-539 CNS was more than 100 µM.

`Cc1ccc(Nc2nc(=S)[nH]c3[nH]ncc23)cc1`: the TGI in the assay on 786-0 renal, with ACHN renal, in the assay with CAKI-1 renal, in the assay with EKVX NSCLC, with HCC-2998 colon and with HOP-92 NSCLC was more than 100 µM throughout. In addition, the TGI with IGROV1 ovarian, in the assay on MCF7 breast, in the assay with MDA-MB-435, in the assay with MOLT-4 leukemia, in the assay on NCI-H460 lung and in the assay on NCI/ADR-RES ovarian was more than 100 µM each time. The TGI in the assay on RXF 393 renal, in the assay with SF-539 CNS, in the assay on SK-OV-3 ovarian, in the assay on SNB-19 CNS, in the assay on SW-620 colon and in the assay on T-47D breast was more than 100 µM throughout. In the assay on UACC-257 melanoma, this molecule showed a TGI of more than 100 µM.

Consider `COc1ccc(/C=C2\C=Cc3ccccc32)cc1OC`, for which the TGI is more than 100 µM in the assay on 786-0 renal; more than 100 µM in the assay with ACHN renal; more than 100 µM in the assay on CAKI-1 renal; more than 100 µM with EKVX NSCLC; more than 100 µM with HCC-2998 colon; 64.9 µM in the assay on HOP-92 NSCLC. The TGI with IGROV1 ovarian, with MCF7 breast, in the assay on MDA-MB-435, with MOLT-4 leukemia, in the assay on NCI-H460 lung and in the assay on NCI/ADR-RES ovarian was more than 100 µM throughout. The TGI with RXF 393 renal, in the assay on SF-539 CNS, with SK-OV-3 ovarian, in the assay with SNB-19 CNS, in the assay with SW-620 colon and in the assay with T-47D breast was more than 100 µM each time. Moreover, the TGI in the assay on UACC-257 melanoma is more than 100 µM.

Consider `O=C(c1ccccc1)c1ccc(C(c2c(O)c3ccccc3oc2=O)c2c(O)c3ccccc3oc2=O)cc1`, for which the TGI was 48.9 µM in the assay with 786-0 renal; 48.6 µM with ACHN renal; 25.3 µM in the assay with CAKI-1 renal; 72.3 µM with EKVX NSCLC; 50.4 µM in the assay on HCC-2998 colon; more than 64.1 µM in the assay with HOP-92 NSCLC. Also, the TGI in the assay with IGROV1 ovarian is more than 60.9 µM; in the assay on MCF7 breast it was more than 100 µM; with MDA-MB-435, more than 74.2 µM; in the assay on MOLT-4 leukemia, 53.9 µM; in the assay on NCI-H460 lung, more than 100 µM; with NCI/ADR-RES ovarian, 62.5 µM. Also, the TGI was more than 69.2 µM in the assay with RXF 393 renal; more than 100 µM in the assay with SF-539 CNS; 38.4 µM in the assay with SK-OV-3 ovarian; 55.8 µM in the assay with SNB-19 CNS; more than 100 µM with SW-620 colon; more than 100 µM with T-47D breast. In the assay on UACC-257 melanoma, this molecule came in with a TGI of 49.5 µM.

Consider `Clc1ccc(N=C/C=C/Nc2ccc(Cl)cn2)nc1`, for which the TGI in the assay on 786-0 renal was 18.3 µM; in the assay on ACHN renal it was 25.1 µM; in the assay on CAKI-1 renal, 25.1 µM; in the assay on EKVX NSCLC, 13.9 µM; in the assay with HCC-2998 colon it was 0.922 µM; in the assay with HOP-92 NSCLC, 30.1 µM. Besides, the TGI with IGROV1 ovarian stood at 28.9 µM; with MCF7 breast it was 31.6 µM; in the assay with MDA-MB-435, 27.6 µM; in the assay on MOLT-4 leukemia it was 19.4 µM; in the assay on NCI-H460 lung, 32.7 µM; with NCI/ADR-RES ovarian, 32.6 µM. Besides, the TGI in the assay with RXF 393 renal is 34.9 µM; in the assay with SF-539 CNS, 31.3 µM; with SK-OV-3 ovarian it was 36.6 µM; with SNB-19 CNS, 30.1 µM; in the assay on SW-620 colon, 16.9 µM; in the assay on T-47D breast, 40.9 µM. In the assay with UACC-257 melanoma, this molecule registered a TGI of 32.3 µM.

Regarding `OC1(c2ccccc2)CC2CCC(C1)N2CCc1ccccc1` (stereo not given), the TGI in the assay with 786-0 renal, with ACHN renal, in the assay on CAKI-1 renal, with EKVX NSCLC, with HCC-2998 colon and in the assay with HOP-92 NSCLC was more than 100 µM throughout. The TGI in the assay with IGROV1 ovarian was more than 100 µM; in the assay with MCF7 breast, 78.1 µM; in the assay with MDA-MB-435, more than 100 µM; in the assay with MOLT-4 leukemia it was more than 100 µM; with NCI-H460 lung, more than 100 µM; with NCI/ADR-RES ovarian it was more than 100 µM. Moreover, the TGI in the assay with RXF 393 renal, in the assay on SF-539 CNS, with SK-OV-3 ovarian, in the assay with SNB-19 CNS, with SW-620 colon and with T-47D breast was more than 100 µM each time. The TGI in the assay on UACC-257 melanoma worked out at 59.1 µM.

For `COc1ccc(OC)c(C2CCc3nc4nc(N)nc(N)c4cc3C2)c1` (stereo not given), the TGI is 6.91 µM in the assay on 786-0 renal; 29.5 µM in the assay on ACHN renal; more than 56.2 µM in the assay with CAKI-1 renal; 28.1 µM in the assay with EKVX NSCLC; 3.16 µM in the assay on HCC-2998 colon; 5.76 µM with HOP-92 NSCLC. Also, the TGI in the assay on IGROV1 ovarian was 26.7 µM; with MCF7 breast it was 3.68 µM; with MDA-MB-435, 4.09 µM; in the assay with MOLT-4 leukemia, 5.3 µM; in the assay with NCI-H460 lung, 19.2 µM; with NCI/ADR-RES ovarian, more than 100 µM. The TGI was determined as 7.45 µM with RXF 393 renal; 17.8 µM with SF-539 CNS; 15.3 µM in the assay on SK-OV-3 ovarian; 6.01 µM in the assay with SNB-19 CNS; 9.12 µM with SW-620 colon; 3.78 µM in the assay on T-47D breast. For the same molecule, in the assay on UACC-257 melanoma, the TGI was determined as 6.1 µM.

As for `C/C(=N/NC(=S)Nc1ccccc1Cl)c1ccccn1`, the TGI with 786-0 renal was found to be 15.8 µM; with ACHN renal it was 8.59 µM; in the assay with CAKI-1 renal, 19.7 µM; with EKVX NSCLC, 7.15 µM; in the assay with HCC-2998 colon it was 18.1 µM; in the assay with HOP-92 NSCLC, 22.7 µM. Moreover, the TGI is 13.9 µM in the assay with IGROV1 ovarian; 0.27 µM in the assay on MCF7 breast; 17.1 µM in the assay on MDA-MB-435; 3.62 µM with MOLT-4 leukemia; 9.85 µM in the assay with NCI-H460 lung; 6.53 µM in the assay with NCI/ADR-RES ovarian. In addition, the TGI in the assay on RXF 393 renal stood at 11.6 µM; in the assay with SF-539 CNS it was 7.56 µM; in the assay with SK-OV-3 ovarian, 13.7 µM; in the assay with SNB-19 CNS, 48.5 µM; in the assay on SW-620 colon it was 29.9 µM; in the assay on T-47D breast, 6.82 µM. For the same molecule, the TGI in the assay on UACC-257 melanoma was 1.07 µM.

For `CCN(CC)C(=S)SS(=O)(=O)c1ccccc1C(=O)O`, the TGI with 786-0 renal, in the assay with ACHN renal, in the assay with CAKI-1 renal, in the assay on EKVX NSCLC, in the assay with HCC-2998 colon and in the assay with HOP-92 NSCLC was more than 100 µM each time. Also, the TGI in the assay on IGROV1 ovarian, in the assay with MCF7 breast, in the assay on MDA-MB-435, in the assay on MOLT-4 leukemia, with NCI-H460 lung and in the assay on NCI/ADR-RES ovarian was more than 100 µM in each case. Further, the TGI in the assay with RXF 393 renal, in the assay with SF-539 CNS, in the assay on SK-OV-3 ovarian, in the assay with SNB-19 CNS, in the assay on SW-620 colon and with T-47D breast was more than 100 µM throughout. In the assay with UACC-257 melanoma, this molecule came in with a TGI of more than 100 µM.

`Clc1ccc(-c2nn3c(CCCCCCCCc4nnc5sc(-c6ccc(Cl)cc6)nn45)nnc3s2)cc1`: the TGI in the assay on 786-0 renal was 60 µM; in the assay with ACHN renal it was more than 100 µM; in the assay with CAKI-1 renal, 46.1 µM; in the assay on EKVX NSCLC, more than 83 µM; in the assay with HCC-2998 colon, more than 100 µM; in the assay on HOP-92 NSCLC, more than 100 µM. Moreover, the TGI in the assay with IGROV1 ovarian is more than 100 µM; in the assay on MCF7 breast, more than 73.3 µM; in the assay with MDA-MB-435, more than 88 µM; in the assay with MOLT-4 leukemia it was 33.2 µM; in the assay on NCI-H460 lung, more than 100 µM; with NCI/ADR-RES ovarian it was more than 87.2 µM. The TGI with RXF 393 renal was more than 62.4 µM; in the assay with SF-539 CNS, 52.6 µM; in the assay with SK-OV-3 ovarian it was more than 90.4 µM; in the assay with SNB-19 CNS it was more than 87.6 µM; in the assay with SW-620 colon, more than 100 µM; with T-47D breast, 34 µM. In the assay with UACC-257 melanoma, this molecule showed a TGI of more than 95.2 µM.

For the molecule `O=c1c2ccccc2nc2n1NC(c1c(Cl)cccc1Cl)N2c1cccc(Cl)c1` (stereo not given), the TGI in the assay on 786-0 renal was 4.24 µM; in the assay with ACHN renal it was 12.5 µM; with CAKI-1 renal, 47.2 µM; with EKVX NSCLC it was more than 100 µM; in the assay on HCC-2998 colon, more than 100 µM; in the assay with HOP-92 NSCLC, 21.8 µM. The TGI was 22.4 µM in the assay on IGROV1 ovarian; 5.2 µM in the assay with MCF7 breast; more than 100 µM in the assay on MDA-MB-435; more than 100 µM in the assay on MOLT-4 leukemia; 34.6 µM in the assay on NCI-H460 lung; 68.5 µM in the assay on NCI/ADR-RES ovarian. Besides, the TGI in the assay with RXF 393 renal was 18.5 µM; in the assay with SF-539 CNS it was 31 µM; in the assay with SK-OV-3 ovarian, 6.81 µM; with SNB-19 CNS, 18 µM; in the assay on SW-620 colon it was 14.3 µM; in the assay with T-47D breast, 32.2 µM. Besides, the TGI in the assay on UACC-257 melanoma was more than 100 µM.
